According to patent publication US20160017048A1, “TARGETING CD138 IN CANCER” (priority 2013, published 2016):

Tests used:
iC9 suicide gene [1] = assay: in vitro elimination of transduced T cells by AP1903 activation of iC9; type: cell-based; conditions: within 24 hrs of in vitro exposure to AP1903 (20-50 nM)
Procedure: A stable producer line with a titer >10^6 per mL may be developed. The T-cell transduction efficiency may range from 30% to 40% in hypoxia (FIG. 3). Redirected T cells can eliminate CD138+ targets in coculture experiments in hypoxia and can be rapidly eliminated (>90% of transduced cells) within 24 hrs of in vitro exposure to AP1903 (20-50 nM), the small molecule dimerizer that activates the iC9 suicide gene.

iC9 suicide gene [2] = assay: in vivo elimination of hCAR.CD138 T cells by AP1903 in patients; parameters: species or system human; conditions: within 3 hours of AP1903 administration
Description: Persistence and expansion of transferred T cells are estimated using immunophenotype and real-time quantitative PCR assay (Q-PCR) in DNA extracted from PB collected at different time points after T-cell infusions. BM samples are collected at week 6 as part of the clinical evaluation of these patients. Plasma samples are collected and snap frozen at intervals to detect IL-2, IL6, IFNγ and TNFα released by T cells in vivo. One can also seek clinical evidence of antitumor activity by monitoring paraprotein levels and PC BM infiltration at 6, 12 and 24 weeks, for example. Patients are closely monitored for the occurrence of toxicity according to NCI criteria. In the case of grade III-IV toxicity, patients are treated with AP1903 to activate the iC9 gene as previously reported. The iC9 effects are quantified by measuring the loss of CAR+ circulating cells and by changes in the iC9 transgene by QPCR.
The molecular signal of the CAR (which is hypoxia independent) is detected both in PB and BM samples by week 6, even though there may be higher signal in the BM because of the accumulation of CAR T cells. The expression of the CAR by flow cytometry in T cells (which is hypoxia dependent, as it detects protein synthesis) is anticipated to be much higher in BM as compared to PB because MM BM is hypoxic. […]

CC[C@H](C(=O)N1CCCC[C@H]1C(=O)O[C@H](CCc1ccc(OC)c(OC)c1)c1cccc(OCC(=O)NCCNC(=O)COc2cccc([C@@H](CCc3ccc(OC)c(OC)c3)OC(=O)[C@@H]3CCCCN3C(=O)[C@@H](CC)c3cc(OC)c(OC)c(OC)c3)c2)c1)c1cc(OC)c(OC)c(OC)c1 [AP1903]
transduced cells eliminated (iC9 suicide gene [1]): > 90% | hCAR.CD138T eliminated (iC9 suicide gene [2]): > 90%
